According to PMC7050772 (Cellular physiology and biochemistry : international …, 2020):
Where two headings read alike, the source gives them in different places.

How the values were obtained:
[1] = biological target: T1, cytochrome P450 1A1 (CYP1A1) (Homo sapiens, UniProt P04798); experiment: P450-Glo Luc-CEE luminescence assay with recombinant CYP1A1 microsomes; assay type: biochemical
T1 sequence (P04798 1-512): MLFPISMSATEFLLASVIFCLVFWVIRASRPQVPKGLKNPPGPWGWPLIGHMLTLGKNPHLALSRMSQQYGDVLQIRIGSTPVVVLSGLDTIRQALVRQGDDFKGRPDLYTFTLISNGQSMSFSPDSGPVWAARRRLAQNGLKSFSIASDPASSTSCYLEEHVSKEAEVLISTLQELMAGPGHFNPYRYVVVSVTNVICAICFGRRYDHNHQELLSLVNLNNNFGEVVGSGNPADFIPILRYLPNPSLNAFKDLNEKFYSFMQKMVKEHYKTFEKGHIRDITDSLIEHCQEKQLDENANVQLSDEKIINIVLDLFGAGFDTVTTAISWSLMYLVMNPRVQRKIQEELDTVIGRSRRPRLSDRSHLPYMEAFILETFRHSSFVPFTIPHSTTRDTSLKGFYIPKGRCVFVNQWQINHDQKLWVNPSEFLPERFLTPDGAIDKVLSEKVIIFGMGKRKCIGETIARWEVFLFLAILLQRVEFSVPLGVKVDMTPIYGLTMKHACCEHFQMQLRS

[2] = biological target: T1, cytochrome P450 1A1 (CYP1A1); experiment: as above; assay type: biochemical; remark: listed apart in the source

Compound	IC50 [1] [µM]	IC50 [2] [µM]
NCCc1c[nH]c2ccc(O)cc12 [5-HT, Serotonin]	1.62	
NCCc1c[nH]c2ccccc12 [TRYPT, Tryptamine]		1.4
O=c1cc(-c2ccccc2)oc2c1ccc1ccccc12 [α-NF, α-naphthoflavone, reference compound]		0.76
